From patent US8765389B2, “Genetic products which are differentially expressed in tumors and use thereof” (Ganymed Pharmaceuticals AG, priority 2003, dated 2014)
d = 2'-deoxy (DNA); r = 2'-OH (RNA)

Key:
Assay type in all cases: cell-based, human
TPTE expression = assay: Methylation studies: induceability of TPTE expression by genomic demethylation, real-time RT-PCR; conditions: 72 h, 2 μM or 10 μM
Protocol: Real-time RT-PCR analysis of the TPTE expression in the non-expressing cell lines BT549 and HCT116 following treatment of the cells with 2 μM and 10 μM 5-aza-2′-desoxycytidine, respectively, and in HCT116 cells which are deficient for DNA methyltransferase.
For investigating the induceability of TPTE expression by genomic demethylation, TPTE negative cell lines BT549 (Mamma-Ca) and HCT116 (Colon-Ca) were cultivated for 72 h with 2 μM or 10 μM 5-aza-2′-desoxycytidine. Then, the TPTE expression was quantified by means of real-time RT-PCR. Furthermore, TPTE expression was quantified in DNA methyl transferase (DNMT) deficient HCT116 cells. While DNMT1 (HCT116^DNMT1−/−) or DNMT3b (HCT116^ENMT3b−/−) deficient cells show an almost unchanged methylation pattern when compared to the parental cell line (HCT116^Par), cells in which both DNMTs have been simultaneously deleted (HCT116^DKO) are characterized by an almost complete demethylation of genomic DNA.
A quantitative real-time PCR (40 cycles, initial denaturation 15 min 95° C., 30 sec 94° C., 30 sec 62° C. and 30 sec 72° C.) was performed using specific primers (sense […] (SEQ ID NO: 823); antisense […] (SEQ ID NO: 28)) (FIG. 19). […] The ectopic expression of many known CT genes in tumors is induced by promoter demethylation. […]

TPTE mRNA = assay: Knock-down of TPTE expression in PC-3 cells using RNAi, real-time RT-PCR; conditions: PC-3 cells electroporated with 1 μM siRNA, 24 hours later, quantitative real-time RT-PCR
Protocol: PC-3 cells were electroporated using 1 μM siRNA specific for TPTE. After 24 h mRNA expression was quantified by real-time RT-PCR. Non-electroporated cells and cells electroporated with DsRed siRNA served as controls.
Expression of TPTE, MS4A12, PCSC and BRCO1 was also quantified using real-time PCR, however, the PCR products were detected using SYBR-Green as reporter dye. The reporter fluorescence of SYBR-Green is suppressed in solution and the dye is only active following binding to double-stranded DNA fragments. The increase of SYBR-Green fluorescence due to the specific amplification by means of GOI-specific primers following each PCR cycle is used for quantification. Quantification of expression of the target gene is performed absolute or relative to the expression of a control gene with constant expression in the tissues to be studied. LDHC expression was calculated by means of the ΔΔ-CT method (PE Biosystems, USA), after normalizing the samples to 18s RNA as “house-keeping” gene. The reactions were carried out in duplex mixtures and determined in triplicate. The QuantiTect SYBR-Green PCR kit (Qiagen, Hilden) was used according to the manufacturer's instructions. cDNA was synthesized using the High Capacity cDNA Archive Kit (PE Biosystems, USA) and hexamer primers according to the manufacturer's information. […]

[1] = tested on: PC-3 prostate carcinoma cells; assay: Boyden chamber (Transwell) migration assay of PC-3 cells after TPTE-siRNA electroporation

Nc1ncn([C@H]2C[C@H](O)[C@@H](CO)O2)c(=O)n1 [5-aza-2′-desoxycytidine]
induction of TPTE expression (TPTE expression; BT549 (Mamma-Ca) cells): strong induction of TPTE expression | induction of TPTE expression (TPTE expression; HCT116 (Colon-Ca) cells): strong induction of TPTE expression

TPTE-siRNA: siRNA duplex (SEQ ID NO: 826/827) targeting nucleotides 2043-2061 of the TPTE mRNA sequence (NM_013315) (chain 1 CCCUGCCACAUGUUCAUAUTT; chain 2 AUAUGAACAUGUGGCAGGGTT; sugars from the 5' end r19 d2, backbone not given here)
decrease in TPTE expression (TPTE mRNA): 70% | cell migration in the Boyden chamber assay ([1]; 48 h after electroporation with 1 μM TPTE-siRNA): Relevant decrease of cell migration | reduction of the migration rate ([1]; Transwell migration assay, compared to untreated cells and cells electroporated with irrelevant siRNA): 70%
